The target in test [1] is T1, S1P1 (Homo sapiens (Human), UniProt P21453). The test is described as follows: Receptor binding assay, [33P]sphingosine 1-phosphate, membranes from CHO cells expressing S1P1. To be noted: [33P]S1P 25 pM, SPA. As for the experimental part:
(§1) Receptor binding assay: Membranes were prepared from CHO cells expressing S1P1 or S1P3 for use in ligand and […] binding studies. Cells were suspended in 50 mM TRIS, pH 7.4, 2 mM EDTA, 250 mM Sucrose (buffer A) and 1× Complete protease inhibitor cocktail (Roche), and disrupted at 4° C. by nitrogen decompression using a cell disruption bomb (Parr Instrument). Following centrifugation at 1000 RPM for 10 min at 4° C., the supernatant was suspended in buffer A and centrifuged again at 19000 RPM for 60 min at 4° C. The pellet was then suspended in 10 mM HEPES, pH 7.4, 1 mM EDTA, 250 mM Sucrose (Buffer B), and 1× Complete EDTA-free protease inhibitor cocktail and homogenized using a potter. Membranes were flash frozen in liquid nitrogen and stored at −80° C. [33P]sphingosine 1-phosphate (3000 Ci/mmol; American Radiolabeled Chemicals, Inc.) was added to test compounds in DMSO. Membranes and WGA SPA beads (GE Healthcare) were added to give a final volume of 100 μl in 96-well plates with assay concentrations of 25 pM or 10 pM [33P]sphingosine 1-phosphate (respectively for S1P1 or S1P3), 50 mM HEPES, pH 7.5, 5 mM MgCl2, 100 mM NaCl, 0.4% fatty acid-free BSA, 1-5 μg/well of proteins and 100 μg/well of WGA SPA beads. Binding was performed for 60 min at room temperature on a shaker and bound radioactivity was measured on a PerkinElmer 1450 MicroBeta counter. Specific binding was calculated by subtracting remaining radioactivity in the presence of 1000-fold excess of unlabeled S1P. Binding data were analyzed using the GraphPad Prism program.

Test [2] addresses T1, S1P1. The test is described as follows: 35S-GTPγS binding, membranes from CHO cells expressing S1P1. The note with it: 60 min 30° C., read-out: S1P1 GTPgS EC50. Format: biochemical. A general note: GTPγS resists hydrolysis and so accumulates on activated G proteins.
In another test the target is S1P3 (Homo sapiens (Human), UniProt Q99500). The test is described as follows: 35S-GTPγS binding, membranes from CHO cells expressing S1P3. The note with it: 60 min 30° C., read-out: S1P3 GTPgs EC50. Format: biochemical. As for the experimental part: as §1
S1P3, sequence (Q99500 whole entry, species assumed): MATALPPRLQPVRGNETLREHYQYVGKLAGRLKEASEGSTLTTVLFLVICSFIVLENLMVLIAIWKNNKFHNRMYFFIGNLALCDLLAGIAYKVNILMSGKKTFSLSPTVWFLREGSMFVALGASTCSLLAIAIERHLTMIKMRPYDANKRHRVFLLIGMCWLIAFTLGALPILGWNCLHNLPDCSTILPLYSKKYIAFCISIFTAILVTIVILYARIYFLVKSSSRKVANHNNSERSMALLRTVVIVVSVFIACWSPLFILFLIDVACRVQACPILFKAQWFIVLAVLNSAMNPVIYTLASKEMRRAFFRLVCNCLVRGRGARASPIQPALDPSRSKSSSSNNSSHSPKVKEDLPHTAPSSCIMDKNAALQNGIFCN
Measurements of ^35S-GTPγS Binding: Membranes (1 to 10 μg protein) prepared as described above, were incubated in 96-well Scintiplates (PerkinElmer) with test compounds diluted in DMSO, in 180 μl of 20 mM HEPES, pH 7.4, 10 mM MgCl2, 2 μg/well Saponin, 0.2% fatty acid free BSA (Assay buffer), 140 mM NaCl and 1.7 μM GDP. The assay was initiated with the addition of 20 μl of 1.5 nM [35S]-GTPγS (1100 Ci/mmol; GE Healthcare) in assay buffer. After 60 min incubation at 30° C. on a shaker, plates were centrifuged for 10 min at 2000 RPM. Supernatant was discarded and membrane bound radioactivity was measured on a PerkinElmer 1450 MicroBeta counter. Triplicate samples were averaged and expressed as % response relative to S1P activation in absence of compound (n=2).

pEC50, pKi: −log10 of the molar value. Where only a bound is given, the exact number is not on record here.

T1 sequence (P21453 whole entry, species assumed): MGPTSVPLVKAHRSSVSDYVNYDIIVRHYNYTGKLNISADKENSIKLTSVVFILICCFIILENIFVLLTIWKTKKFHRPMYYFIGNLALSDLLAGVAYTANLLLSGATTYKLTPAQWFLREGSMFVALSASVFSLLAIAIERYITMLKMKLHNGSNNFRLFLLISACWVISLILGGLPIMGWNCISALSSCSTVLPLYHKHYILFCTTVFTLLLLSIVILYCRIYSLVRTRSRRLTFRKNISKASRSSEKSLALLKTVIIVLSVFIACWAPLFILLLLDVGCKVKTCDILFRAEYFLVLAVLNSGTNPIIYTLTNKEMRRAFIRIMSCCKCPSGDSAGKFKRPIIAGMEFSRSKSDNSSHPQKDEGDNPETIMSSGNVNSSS

In the case of `COc1ccccc1-c1noc(-c2ccc(N3CCCCC3)c([N+](=O)[O-])c2)n1` [Compound I1, 1-{4-[3-(2-methoxyphenyl)-1,2,4-oxadiazol-5-yl]-2-nitrophenyl}piperidine], the pKi on S1P1 [1] is 7.96. In addition, the pEC50 on S1P1 [2] is 7.57; at S1P3, less than 4.70.

`COc1ccccc1-c1noc(-c2ccc(N3CCOCC3)c([N+](=O)[O-])c2)n1` [Compound I2, 4-{4-[3-(2-methoxyphenyl)-1,2,4-oxadiazol-5-yl]-2-nitrophenyl}morpholine] showed a pKi on S1P1 [1] of 7.74. The pEC50 on S1P1 [2] is 7.29; on S1P3, less than 4.52.

At S1P1 [1], `FC(F)(F)Oc1ccccc1-c1noc(-c2ccc(N3CCCCC3)cc2)n1` [Compound I3, 1-(4-{3-[2-(trifluoromethoxy)phenyl]-1,2,4-oxadiazol-5-yl}phenyl)piperidine] gave a pKi of 6.19. Further, on S1P1 [2], the pEC50 was 5.75.

For the molecule `COc1ccccc1-c1noc(-c2ccc(N3CCCCC3)cc2)n1` [Compound I4, 1-{4-[3-(2-methoxyphenyl)-1,2,4-oxadiazol-5-yl]phenyl}piperidine], at S1P1 [1], the pKi was 5.97. Further, the pEC50 on S1P1 [2] is 5.44.

In the case of `CC1CCCCN1c1ccc(-c2nc(-c3ccccc3OC(F)(F)F)no2)cc1[N+](=O)[O-]` (centres unmarked) [Compound I8, 2-methyl-1-(2-nitro-4-{3-[2-(trifluoromethoxy)phenyl]-1,2,4-oxadiazol-5-yl}phenyl)piperidine], the pEC50 is 7.74 at S1P1 [2] and less than 4.52 at S1P3.

For the molecule `COc1ccccc1-c1noc(-c2ccc(N3CCCCC3C)c([N+](=O)[O-])c2)n1` (centres unmarked) [Compound I9, 1-{4-[3-(2-methoxyphenyl)-1,2,4-oxadiazol-5-yl]-2-nitrophenyl}-2-methylpiperidine], the pEC50 on S1P1 [2] was 8.15; at S1P3, 5.27.

Turning to `CCOc1ccccc1-c1noc(-c2ccc(N3CCCCC3C)c([N+](=O)[O-])c2)n1` (centres unmarked) [Compound I10, 1-{4-[3-(2-ethoxyphenyl)-1,2,4-oxadiazol-5-yl]-2-nitrophenyl}-2-methylpiperidine], the pEC50 at S1P1 [2] is 7.62; on S1P3 it was less than 4.52.

As to `COc1ccccc1-c1noc(-c2ccc(N3CCCC(F)(F)C3)c([N+](=O)[O-])c2)n1` [Compound I12, 3,3-difluoro-1-{4-[3-(2-methoxyphenyl)-1,2,4-oxadiazol-5-yl]-2-nitrophenyl}piperidine], the figures for the negative-log EC50 (pEC50) at S1P1 [2] and at S1P3 were 7.44 and less than 4.52, respectively.

`COc1ccccc1-c1noc(-c2ccc(N3CCOCC3)c(C(F)(F)F)c2)n1` [Compound I18, 4-[4-[3-(2-methoxyphenyl)-1,2,4-oxadiazol-5-yl]-2-(trifluoromethyl)phenyl]morpholine] gave a pKi at S1P1 [1] of 8.15. Besides, the pEC50 on S1P1 [2] is 8.22; at S1P3, less than 4.52.

In the case of `FC(F)(F)Oc1ccccc1-c1noc(-c2ccc(N3CCOCC3)c(C(F)(F)F)c2)n1` [Compound I19, 4-[4-{3-[2-(trifluoromethoxy)phenyl]-1,2,4-oxadiazol-5-yl}-2-(trifluoromethyl)phenyl]morpholine], the pEC50 at S1P1 [2] was 7.74; on S1P3, less than 4.52.

Molecule `COc1ccccc1-c1noc(-c2ccc(-c3ccccc3C)c(C)c2)n1` [Compound I20, 5-(2,2′-dimethylbiphenyl-4-yl)-3-(2-methoxyphenyl)-1,2,4-oxadiazole] had a pKi at S1P1 [1] of 7.80. For the same molecule, the pEC50 was 7.36 at S1P1 [2] and 5.49 on S1P3.

As to `Cc1ccccc1-c1ccc(-c2nc(-c3ccccc3OC(F)(F)F)no2)cc1C` [Compound I21, 5-(2,2′-dimethylbiphenyl-4-yl)-3-[2-(trifluoromethoxy)phenyl]-1,2,4-oxadiazole], the negative-log Ki (pKi) at S1P1 [1] is 8.10. Besides, the pEC50 on S1P1 [2] was 8.40; on S1P3, less than 4.52.

As for `CCOc1ccccc1-c1noc(-c2ccc(-c3ccccc3C)c(C)c2)n1` [Compound I22, 5-(2,2′-dimethylbiphenyl-4-yl)-3-(2-ethoxyphenyl)-1,2,4-oxadiazole], the pEC50 at S1P1 [2] is 7.29; at S1P3 it was less than 4.52.

For the molecule `Cc1cc(-c2nc(-c3ccccc3OC(F)(F)F)no2)ccc1-c1ccccc1C(F)(F)F` [Compound I23, 5-[2-methyl-2′-(trifluoromethyl)biphenyl-4-yl]-3-[2-(trifluoromethoxy)phenyl]-1,2,4-oxadiazole], on S1P1 [1], the pKi was 7.80. Also, the pEC50 at S1P1 [2] was 8.00; on S1P3, less than 4.52.

With `COc1ccccc1-c1noc(-c2ccc(-c3cscc3C)c(C)c2)n1` [Compound I25, 3-(2-methoxyphenyl)-5-[3-methyl-4-(4-methyl-3-thienyl)phenyl]-1,2,4-oxadiazole], the negative logarithm of the Ki (pKi) on S1P1 [1] was 8.52. The pEC50 is 8.05 on S1P1 [2] and 5.26 on S1P3.

The molecule `FC(F)(F)Oc1ccccc1-c1noc(-c2ccc(C3CCCCC3)cc2)n1` [Compound I29, 5-(4-cyclohexylphenyl)-3-[2-(trifluoromethoxy)phenyl]-1,2,4-oxadiazole] had a pKi at S1P1 [1] of 7.60. For the same molecule, the pEC50 on S1P1 [2] is 7.23.

On S1P1 [1], `COc1ccc(F)cc1-c1noc(-c2ccc(-c3ccccc3C)c(C)c2)n1` [Compound I33, 5-(2,2′-dimethylbiphenyl-4-yl)-3-(5-fluoro-2-methoxyphenyl)-1,2,4-oxadiazole] had a pKi of 7.37. The pEC50 on S1P1 [2] is 8.22.

In the case of `Cc1ccccc1-c1ccc(-c2nc(-c3ccccc3OC(F)(F)F)no2)cc1[N+](=O)[O-]` [Compound I36, 5-(2′-methyl-2-nitrobiphenyl-4-yl)-3-[2-(trifluoromethoxy)phenyl]-1,2,4-oxadiazole], the negative-log EC50 (pEC50) at S1P1 [2] is 8.00; at S1P3 it was 5.68.

Regarding `COc1ccccc1-c1ccc(-c2nc(-c3ccccc3OC(F)(F)F)no2)cc1C` [Compound I45, 5-(2′-methoxy-2-methylbiphenyl-4-yl)-3-[2-(trifluoromethoxy)phenyl]-1,2,4-oxadiazole], the pEC50 on S1P1 [2] was 8.00; at S1P3 it was less than 4.70.

With `COc1cc(-c2nc(-c3ccccc3OC(F)(F)F)no2)ccc1-c1ccccc1C` [Compound I53, 5-(2-methoxy-2′-methylbiphenyl-4-yl)-3-[2-(trifluoromethoxy)phenyl]-1,2,4-oxadiazole], the pEC50 at S1P1 [2] is 7.85; on S1P3 it was less than 4.70.

Regarding `COc1cc(-c2nc(-c3ccccc3OC(F)(F)F)no2)ccc1-c1cscc1C` [Compound I54, 5-[3-methoxy-4-(4-methyl-3-thienyl)phenyl]-3-[2-(trifluoromethoxy)phenyl]-1,2,4-oxadiazole], the pEC50 on S1P1 [2] is 7.89; on S1P3, less than 4.52.

As for `FC(F)(F)Oc1ccccc1-c1noc(-c2ccc(N3CCCCC3)c(C(F)(F)F)c2)n1` [Compound I61, 1-[4-{3-[2-(trifluoromethoxy)phenyl]-1,2,4-oxadiazol-5-yl}-2-(trifluoromethyl)phenyl]piperidine], the pKi on S1P1 [1] was 7.27. The pEC50 on S1P1 [2] is 8.40.

As for `COc1ccccc1-c1noc(-c2ccc(-c3ccccc3C)c(C(F)(F)F)c2)n1` [Compound I62, 3-(2-methoxyphenyl)-5-[2′-methyl-2-(trifluoromethyl)biphenyl-4-yl]-1,2,4-oxadiazole], the negative logarithm of the Ki (pKi) at S1P1 [1] is 8.10. For the same molecule, the negative-log EC50 (pEC50) at S1P1 [2] is 8.40.

As to `COc1ccc(F)cc1-c1noc(-c2ccc(N3CCCCC3C)c(N)c2)n1` (centres unmarked) [Compound I69, 5-[3-(5-fluoro-2-methoxyphenyl)-1,2,4-oxadiazol-5-yl]-2-(2-methylpiperidin-1-yl)aniline], the pEC50 at S1P1 [2] was 7.62; on S1P3 it was 6.57.

With `Cc1cscc1-c1ccc(-c2nc(-c3ccccc3OC(F)(F)F)no2)cc1C(F)(F)F` [Compound I70, 5-[4-(4-methyl-3-thienyl)-3-(trifluoromethyl)phenyl]-3-[2-(trifluoromethoxy)phenyl]-1,2,4-oxadiazole], the pKi at S1P1 [1] is 8.40. The pEC50 at S1P1 [2] is 8.70.

`COc1ccc(F)cc1-c1noc(-c2cnc(N3CCCCC3C)c(C)c2)n1` (centres unmarked) [Compound I74, 5-[3-(5-fluoro-2-methoxyphenyl)-1,2,4-oxadiazol-5-yl]-3-methyl-2-(2-methylpiperidin-1-yl)pyridine] gave a pKi at S1P1 [1] of 8.22. Besides, the negative logarithm of the EC50 (pEC50) at S1P1 [2] is 8.30.

In general, pKi refers to the Ki on a negative log10 scale, so that one unit is a factor of ten. Low values mean a large Ki, high ones a small Ki. A word on the pEC50: it is −log10 of the EC50, conventionally taken in molar units.

Values taken from patent publication US8889668B2, “Oxadiazole diaryl compounds” (Merck Serono SA, priority 2007, dated 2014).
